Data from PubChem BioAssay AID236 (DTP/NCI, 2004).
Where “and” joins values, the source holds several entries; their conditions need not be identical. Equal values may be shown once. Inconclusive results and toxic doses are left out. Starred links: 1 amine or outer side, 2 acyl side, 3 side chain; linkers in the order of their positions; H or OH if unused. Positions of bridges follow the written chain, without caps; N, C: chain ends. Non-standard residues stand in square brackets, D forms with d. Residues, ends and D or L forms follow the SMILES beside them. Chains are numbered I, II in the order given. Actinocin(9to1) = Cc1c2oc3c(C)ccc(C(=O)[*:1])c3nc-2c(C(=O)[*:2])c(N)c1=O; aThr = C[C@H](O)[C@H](N)C(=O)O; NMeV = CN[C@H](C(=O)O)C(C)C; Sar = CNCC(=O)O

System: AK4 lymphoid leukemia ip, C3AKF1 mice, survival
Test: NCI In Vivo Anticancer Drug Screen. Data for tumor model AK4 Lymphoid Leukemia (intraperitoneal) in C3AKF1 (CHKRF1) mice
Conditions: endpoint: median survival time, higher = longer survival
Method: The antitumor activity of compounds was measured in mice bearing transplantable tumors. Survival or tumor size were measured and the results are expressed as the measurement made in the treated group (T) divided by the measurement made in the vehicle treated control group (C). The tumor model used in this assay is AK4 Lymphoid Leukemia (intraperitoneal) in C3AKF1 (CHKRF1) mice

[1] = dose: 0.5 mg/kg/injection, schedule: Q01DX010 (ip), vehicle: saline
[2] = dose: 1.0 mg/kg/injection, schedule: Q01DX010 (ip), vehicle: saline
[3] = dose: 2.0 mg/kg/injection, schedule: Q01DX010 (ip), vehicle: saline
[4] = dose: 4.0 mg/kg/injection, schedule: Q01DX010 (ip), vehicle: saline
[5] = dose: 8.0 mg/kg/injection, schedule: Q01DX010 (ip), vehicle: saline
[6] = dose: 25.0 mg/kg/injection, schedule: Q01DX010 (ip), vehicle: saline
[7] = dose: 16.0 mg/kg/injection, schedule: Q01DX010 (ip), vehicle: saline
[8] = dose: 32.0 mg/kg/injection, schedule: Q01DX010 (ip), vehicle: saline
[9] = dose: 64.0 mg/kg/injection, schedule: Q01DX010 (ip), vehicle: saline

## CN1CC[C@]23c4c5ccc(O)c4O[C@H]2C(=O)CC[C@H]3[C@H]1C5
[1]
  T/C: 94 % of control
[2]
  T/C: 105 % of control
[3]
  T/C: 94 % of control
[4]
  T/C: 88 % of control and 94 % of control
[5]
  T/C: 88 % of control

## CN(C)c1nc(N(C)C)nc(N(C)C)n1
dose: 18.8 mg/kg/injection, schedule: Q01DX010 (ip), vehicle: saline
  T/C: 94 % of control
dose: 37.5 mg/kg/injection, schedule: Q01DX010 (ip), vehicle: saline
  T/C: 100 % of control
dose: 75.0 mg/kg/injection, schedule: Q01DX010 (ip), vehicle: saline
  T/C: 94 % of control
dose: 150.0 mg/kg/injection, schedule: Q01DX010 (ip), vehicle: saline
  T/C: 100 % of control

## O=P1(N(CCCl)CCCl)NCCCO1 (stereo not given)
dose: 11.3 mg/kg/injection, schedule: Q01DX010 (ip), vehicle: saline
  T/C: 175 % of control
dose: 11.3 mg/kg/injection, schedule: Q01DX Z (ip), vehicle: saline
  T/C: 180 % of control and 189 % of control
dose: 22.5 mg/kg/injection, schedule: Q01DX010 (ip), vehicle: saline
  T/C: 170 % of control and 187 % of control
dose: 22.5 mg/kg/injection, schedule: Q01DX Z (ip), vehicle: saline
  T/C: 202 % of control and 210 % of control
dose: 45.0 mg/kg/injection, schedule: Q01DX010 (ip), vehicle: saline
  T/C: 220 % of control and 375 % of control
dose: 45.0 mg/kg/injection, schedule: Q01DX Z (ip), vehicle: saline
  T/C: 196 % of control and 204 % of control
dose: 90.0 mg/kg/injection, schedule: Q01DX010 (ip), vehicle: saline
  T/C: 105 % of control and 225 % of control
dose: 90.0 mg/kg/injection, schedule: Q01DX Z (ip), vehicle: saline
  T/C: 151 % of control and 168 % of control
dose: 180.0 mg/kg/injection, schedule: Q01DX010 (ip), vehicle: saline
  T/C: 105 % of control and 118 % of control
dose: 180.0 mg/kg/injection, schedule: Q01DX Z (ip), vehicle: saline
  T/C: 113 % of control and 120 % of control

## N=[N+]=CC(=O)OCC(N)C(=O)O (stereo not given)
dose: 3.13 mg/kg/injection, schedule: Q01DX010 (ip), vehicle: saline
  T/C: 122 % of control
dose: 12.5 mg/kg/injection, schedule: Q01DX010 (ip), vehicle: saline
  T/C: 113 % of control
[6]
  T/C: 100 % of control and 86 % of control

## O=C(Nc1ccc(C2=NCCN2)cc1)c1cccc(C(=O)Nc2ccc(C3=NCCN3)cc2)c1
[5]
  T/C: 115 % of control
[7]
  T/C: 150 % of control and 165 % of control
[8]
  T/C: 205 % of control and 210 % of control
[9]
  T/C: 235 % of control and 245 % of control

## CSc1ncnc2nc[nH]c12
[6]
  T/C: 100 % of control
dose: 50.0 mg/kg/injection, schedule: Q01DX010 (ip), vehicle: saline
  T/C: 100 % of control
dose: 100.0 mg/kg/injection, schedule: Q01DX010 (ip), vehicle: saline
  T/C: 100 % of control
dose: 200.0 mg/kg/injection, schedule: Q01DX010 (ip), vehicle: saline
  T/C: 100 % of control

## Nc1nc(F)nc2c1ncn2C1OC(CO)C(O)C1O (stereo not given)
[1]
  T/C: 105 % of control
[2]
  T/C: 100 % of control
[3]
  T/C: 100 % of control and 111 % of control
[4]
  T/C: 100 % of control and 105 % of control

## Cc1c2oc3c(C)ccc(C(=O)N[C@@H]4C(=O)N[C@H](C(C)C)C(=O)N5CCC[C@H]5C(=O)N(C)CC(=O)N(C)[C@@H](C(C)C)C(=O)O[C@H]4C)c3nc-2c(C(=O)N[C@@H]2C(=O)N[C@H](C(C)C)C(=O)N3CCC[C@H]3C(=O)N(C)CC(=O)N(C)[C@@H](C(C)C)C(=O)O[C@H]2C)c(N)c1=O (I: [aThr][dV]P[Sar][NMeV] / II: [aThr][dV]P[Sar][NMeV]; ester I:1-I:C, II:1-II:C; linker I:N-II:N via Actinocin(9to1))
dose: 12.5 micrograms/kg/injection, schedule: Q01DX010 (ip), vehicle: other
  T/C: 100 % of control and 86 % of control
dose: 25.0 micrograms/kg/injection, schedule: Q01DX010 (ip), vehicle: other
  T/C: 95 % of control and 105 % of control
dose: 50.0 micrograms/kg/injection, schedule: Q01DX010 (ip), vehicle: other
  T/C: 100 % of control
dose: 100.0 micrograms/kg/injection, schedule: Q01DX010 (ip), vehicle: other
  T/C: 100 % of control and 109 % of control

## CC(CCC(C)OS(C)(=O)=O)OS(C)(=O)=O (stereo not given)
[3]
  T/C: 88 % of control
[4]
  T/C: 88 % of control
[5]
  T/C: 94 % of control

## CCCCn1cnc2c(=S)nc[nH]c21
[7]
  T/C: 100 % of control
[8]
  T/C: 90 % of control and 122 % of control
[9]
  T/C: 90 % of control and 111 % of control
dose: 128.0 mg/kg/injection, schedule: Q01DX010 (ip), vehicle: saline
  T/C: 94 % of control and 100 % of control
